In ChEMBL document CHEMBL1158665, “Antipoliovirus structure-activity relationships of some aporphine alkaloids” (J Nat Prod, 1998):
Structures can show the parent of a compound that is named as a salt.

How the values were obtained:
Poliovirus 2 [1] = experiment: Antiviral activity against Poliovirus 2 Sabin 2 in african green monkey Vero cells assessed as log reduction in virus titers after at 0.01 multiple round of replication at their respective half the maximum tolerated concentration after 32 hrs; type: functional
[2] = Cytotoxicity against african green monkey Vero cells assessed as drug concentration at which no cellular alteration was microscopically detected; type: cell-based; settings: chlorocebus sabaeus, read-out: MTC
Poliovirus 2 [3] = experiment: Antiviral activity against Poliovirus 2 Sabin 2 in african green monkey Vero cells assessed as log reduction in virus titers after at 0.001 multiple round of replication at their respective half the maximum tolerated concentration after 32 hrs; type: functional
Poliovirus 2 [4] = experiment: Antiviral activity against Poliovirus 2 Sabin 2 infected in african green monkey Vero cells at 0.001 multiplicity of infection assessed as inhibition of virus-induced cytopathogenicity; type: functional; settings: Enterovirus C, Sabin 2, Vero; read-out: ED50 (the source's name)
Poliovirus 2 [5] = experiment: Antiviral activity against Poliovirus 2 Sabin 2 in african green monkey Vero cells assessed as log reduction in virus titers after at 0.01 multiple round of replication at their respective maximum tolerated concentration after 32 hrs; type: functional
Poliovirus 2 [6] = experiment: Antiviral activity against Poliovirus 2 Sabin 2 in african green monkey Vero cells assessed as log reduction in virus titers after at 0.1 multiple round of replication at their respective maximum tolerated concentration after 32 hrs; type: functional
Poliovirus 2 [7] = experiment: Antiviral activity against Poliovirus 2 Sabin 2 in african green monkey Vero cells assessed as log reduction in virus titers after at 0.001 multiple round of replication at their respective maximum tolerated concentration after 32 hrs; type: functional
Poliovirus 2 [8] = experiment: Antiviral activity against Poliovirus 2 Sabin 2 in african green monkey Vero cells assessed as log reduction in virus titers after at 0.1 multiple round of replication at their respective half of maximum tolerated concentration after 32 hrs; type: functional
[9] = Cytotoxicity against african green monkey Vero cells; type: cell-based; settings: chlorocebus sabaeus
[10] = Selectivity index, ratio of CC50 for african green monkey Vero cells to ED50 for Poliovirus 2 Sabin 2; type: toxicity, cell-based

| Compound | Activity (Poliovirus 2 [1]) | MNTC [2] | Activity (Poliovirus 2 [3]) | EC50 (Poliovirus 2 [4]) | Activity (Poliovirus 2 [5]) | Activity (Poliovirus 2 [6]) | Activity (Poliovirus 2 [7]) | Activity (Poliovirus 2 [8]) | CC50 [9] | selectivity ratio [10] |
| --- | --- | --- | --- | --- | --- | --- | --- | --- | --- | --- |
| COc1cc2c(cc1OC)-c1c(OC)c(OC)cc3c1[C@H](C2)N(C(C)=O)CC3 | 0.5 | 250 µM | 1 | 50 µM | 1.5 | 1.5 | 1.5 | 0.5 | 342 µM | 6.8 |
| COc1cc2c(cc1O)C[C@H]1c3c(cc(OC)c(OC)c3-2)CCN1C | 1 | 125 µM | 1 | 15 µM | 1.5 | 1 | 2.5 | 0.5 | 250 µM | 16.7 |
| COc1cc2c(cc1O)C[C@@H]1NCCc3cc4c(c-2c31)OCO4 [ACTINODAPHNINE] | – | 95 µM | – | – | – | – | – | – | 107 µM | – |
| COc1cc2c(cc1O)C[C@H]1c3c(cc(O)c(OC)c3-2)CCN1C [BOLDINE] | – | 125 µM | – | 125 µM | – | – | – | – | 250 µM | 2 |
| COc1cc2c(cc1O)C[C@H]1c3c(cc4c(c3-2)OCO4)CCN1C [CASSYTHICINE] | – | 31 µM | – | – | – | – | – | – | 47 µM | – |
| COc1cc2c(cc1OC)-c1c(OC)c(OC)cc3c1[C@H](C2)N(C)CC3.O=C(O)/C=C/C(=O)O [GLAUCINE FUMARATE] | 1 | 62 µM | 1.5 | 9 µM | 1.5 | 1 | 3 | 0.5 | 142 µM | 15.8 |
| COc1c2c3c(c4c1OCO4)-c1ccccc1[C@H](O)[C@H]3N(C)CC2 [GUATTERINE] | – | 62 µM | – | 62 µM | – | – | – | – | 107 µM | 1.7 |
| COc1cc2c(cc1O)C[C@H]1c3c(cc(OC)c(O)c3-2)CCN1C.Cl [ISOBOLDINE HYDROCHLORIDE] | 1 | 125 µM | 1.5 | 15 µM | 1.5 | 1.5 | 2.5 | 1 | 217 µM | 14.5 |
| COc1cc2c(cc1O)C[C@@H]1NCCc3cc(OC)c(OC)c-2c31 [LAUROTETANINE] | 1 | 62 µM | 1 | 31 µM | 1.5 | 1 | 1.5 | 0.5 | 165 µM | 5.3 |
| O=C1c2ccccc2-c2c3c(cc4ccnc1c24)OCO3 [LIRIODENINE] | – | 31 µM | – | – | – | – | – | – | 48 µM | – |
| COc1cc2ccnc3c2c(c1OC)-c1ccccc1C3=O [LYSICAMINE] | – | 250 µM | – | – | – | – | – | – | 500 µM | – |
| COc1cc2c(cc1O)C[C@@H]1NCCc3cc(O)c(OC)c-2c31 [NORBOLDINE] | – | 62 µM | – | 62 µM | – | – | – | – | 95 µM | 1.5 |
| COc1cc2c3c(c1OC)-c1ccccc1C[C@H]3N(C)CC2.Cl [NUCIFERINE HYDROCHLORIDE] | 0.5 | 125 µM | 0.5 | 26 µM | 1 | 1 | 2 | 0.5 | 435 µM | 16.7 |
| COc1ccc2c(c1)[C@H](O)[C@@H]1c3c(cc4c(c3-2)OCO4)CCN1C [OLIVERIDINE] | – | 5 µM | – | – | – | – | – | – | 7 µM | – |
| COc1ccc2c(c1)[C@H](OC)[C@@H]1c3c(cc4c(c3-2)OCO4)CCN1C [OLIVERINE HCL] | – | 7 µM | – | – | – | – | – | – | 9 µM | – |
| COc1cccc2c1C(=O)c1nccc3cc4c(c-2c13)OCO4 [OXOSTEPHANINE] | – | 15 µM | – | – | – | – | – | – | 28 µM | – |
| CO[C@H]1c2ccccc2-c2c3c(cc4c2[C@@H]1NCC4)OCO3 [PACHYPODANTINE] | – | 20 µM | – | – | – | – | – | – | 25 µM | – |
| CO[C@H]1c2ccccc2-c2c3c(cc4c2[C@@H]1N(C)C[C@@H]4O)OCO3 [PACHYSTAUDINE] | – | 62 µM | – | 31 µM | 0.5 | 0 | 0.5 | – | 68 µM | 2.2 |
